From PubChem BioAssay AID248 (DTP/NCI, 2004)
“And” between values parts separate entries of the source, which are not always exact repeats. Equal entries are not always repeated. Inconclusive results and toxic doses are left out. Cut-off read from the data, not from the text of the source: active = T/C of 150% or more; inactive = T/C below 125%.

System: L1210 leukemia ip in BDF1 mice, survival T/C
Assay: NCI In Vivo Anticancer Drug Screen. Data for tumor model L1210 Leukemia (intraperitoneal) in B6D2F1 (BDF1) mice
Details: endpoint: mean survival time, higher = longer survival
Summary of the method: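 Antitumor effect is assessed in tumor-bearing animals. Survival in the compound arm is compared with a vehicle-dosed control arm and expressed as their quotient.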

[1] = dose: 100.0 mg/kg/injection, schedule: Q04DX003 (ip), vehicle: saline with Tween-80
[2] = dose: 200.0 mg/kg/injection, schedule: Q04DX003 (ip), vehicle: saline with Tween-80
[3] = dose: 400.0 mg/kg/injection, schedule: Q04DX003 (ip), vehicle: saline with Tween-80
[4] = dose: 100.0 mg/kg/injection, schedule: Q01DX009 (ip), vehicle: Klucel (hydroxypropylcellulose) (HPC)
[5] = dose: 200.0 mg/kg/injection, schedule: Q01DX009 (ip), vehicle: Klucel (hydroxypropylcellulose) (HPC)
[6] = dose: 200.0 mg/kg/injection, schedule: Q04DX003 (ip), vehicle: Klucel (hydroxypropylcellulose) (HPC)
[7] = dose: 400.0 mg/kg/injection, schedule: Q01DX009 (ip), vehicle: Klucel (hydroxypropylcellulose) (HPC)
[8] = dose: 400.0 mg/kg/injection, schedule: Q04DX003 (ip), vehicle: Klucel (hydroxypropylcellulose) (HPC)
[9] = dose: 50.0 mg/kg/injection, schedule: Q01DX009 (ip), vehicle: saline with Tween-80
[10] = dose: 100.0 mg/kg/injection, schedule: Q01DX009 (ip), vehicle: saline with Tween-80
[11] = dose: 200.0 mg/kg/injection, schedule: Q01DX009 (ip), vehicle: saline with Tween-80
[12] = dose: 100.0 mg/kg/injection, schedule: Q01DX001 (ip), vehicle: saline
[13] = dose: 200.0 mg/kg/injection, schedule: Q01DX001 (ip), vehicle: saline
[14] = dose: 400.0 mg/kg/injection, schedule: Q01DX001 (ip), vehicle: saline
[15] = dose: 50.0 mg/kg/injection, schedule: Q01DX001 (ip), vehicle: saline
[16] = dose: 100.0 mg/kg/injection, schedule: Q01DX001 (ip), vehicle: Klucel (hydroxypropylcellulose) (HPC)
[17] = dose: 200.0 mg/kg/injection, schedule: Q01DX001 (ip), vehicle: Klucel (hydroxypropylcellulose) (HPC)
[18] = dose: 400.0 mg/kg/injection, schedule: Q01DX001 (ip), vehicle: Klucel (hydroxypropylcellulose) (HPC)

Measured: T/C

S=C(Cc1ccc2ccccc2c1)N1CCOCC1
inactive: dose: 25.0 mg/kg/injection, schedule: Q01DX009 (ip), vehicle: saline sonified 94 % of control | dose: 50.0 mg/kg/injection, schedule: Q01DX009 (ip), vehicle: saline sonified 100 % of control | dose: 100.0 mg/kg/injection, schedule: Q01DX001 (ip), vehicle: saline with Tween-80 105 % of control | dose: 100.0 mg/kg/injection, schedule: Q01DX009 (ip), vehicle: saline sonified 96 % of control

Nc1cc(SC(c2ccccc2)c2ccccc2)c(N)c(N)n1
inactive: dose: 75.0 mg/kg/injection, schedule: Q01DX001 (ip), vehicle: DMSO 96 % of control | dose: 150.0 mg/kg/injection, schedule: Q01DX001 (ip), vehicle: DMSO 88 % of control

CCCCCCCCC(=O)Nc1cccc(O)c1
inactive: [1] 96 % of control | [2] 101 % of control | [3] 96 % of control

C=CC(=C)OC
inactive: dose: 25.0 mg/kg/injection, schedule: Q01DX005 (ip), vehicle: saline 117 % of control | dose: 50.0 mg/kg/injection, schedule: Q01DX005 (ip), vehicle: saline 113 % of control | dose: 100.0 mg/kg/injection, schedule: Q01DX005 (ip), vehicle: saline 111 % of control | dose: 200.0 mg/kg/injection, schedule: Q01DX005 (ip), vehicle: saline 107 % of control | dose: 400.0 mg/kg/injection, schedule: Q01DX005 (ip), vehicle: saline 111 % of control

CC(=O)OC1CC(n2cc(C)c(=O)[nH]c2=O)OC1COP(=O)(N1CC1(C)C)N1CC1(C)C (stereo unspecified)
inactive: dose: 50.0 mg/kg/injection, schedule: Q04DX002 (ip), vehicle: saline 110 % of control | dose: 100.0 mg/kg/injection, schedule: Q04DX002 (ip), vehicle: saline 112 % of control | dose: 200.0 mg/kg/injection, schedule: Q04DX002 (ip), vehicle: saline 123 % of control

COC(C/C=C\C=C\CC/C=C/CC(C)/C=C/C(=C\C(=O)O)CC(=O)O)/C(C)=C\C=C(/C)C(=O)O (stereo unspecified)
inactive: dose: 0.5 mg/kg/injection, schedule: Q01DX001 (ip), vehicle: saline 101 % of control | dose: 1.0 mg/kg/injection, schedule: Q01DX001 (ip), vehicle: saline 102 % of control | dose: 2.0 mg/kg/injection, schedule: Q01DX001 (ip), vehicle: saline 102 % of control | dose: 4.0 mg/kg/injection, schedule: Q01DX001 (ip), vehicle: saline 104 % of control | dose: 8.0 mg/kg/injection, schedule: Q01DX001 (ip), vehicle: saline 101 % of control

O=C(CCCN1CCN(c2ccccc2)CC1)c1ccc(F)cc1
inactive: dose: 12.5 mg/kg/injection, schedule: Q01DX009 (ip), vehicle: saline 122 % of control | dose: 25.0 mg/kg/injection, schedule: Q01DX009 (ip), vehicle: saline 106 % of control | dose: 50.0 mg/kg/injection, schedule: Q01DX009 (ip), vehicle: saline 114 % of control | dose: 100.0 mg/kg/injection, schedule: Q01DX009 (ip), vehicle: saline 111 % of control | dose: 200.0 mg/kg/injection, schedule: Q01DX009 (ip), vehicle: saline 103 % of control

Nc1c(Br)cc(Br)cc1Br
inactive: [4] 96 % of control | dose: 100.0 mg/kg/injection, schedule: Q04DX003 (ip), vehicle: Klucel (hydroxypropylcellulose) (HPC) 106 % of control | [5] 96 % of control | [6] 92 % of control | [7] 98 % of control | [8] 97 % of control

COc1ccc(C(CC(=O)c2ccc3c(c2)OCO3)c2c(O)c3ccccc3oc2=O)cc1OC (stereo unspecified)
inactive: [9] 96 % of control | [10] 96 % of control | [1] 94 % of control | [11] 91 % of control | [2] 89 % of control | [3] 88 % of control

C=CCCCCCCCCC(=O)NC[n+]1cccc(O)c1
inactive: [1] 87 % of control

CCCCCCCCc1nc2c(c(=O)n(C)c(=O)n2C)n1C
inactive: dose: 45.0 mg/kg/injection, schedule: Q01DX001 (ip), vehicle: saline 95 % of control and 101 % of control | dose: 67.0 mg/kg/injection, schedule: Q01DX001 (ip), vehicle: saline 101 % of control and 104 % of control | [12] 97 % of control and 104 % of control | dose: 150.0 mg/kg/injection, schedule: Q01DX001 (ip), vehicle: saline 95 % of control and 101 % of control

Nc1ncnc2c1ncn2C1OC(CO)C(O)C(O)C1O (stereo unspecified)
inactive: [12] 103 % of control [middle of 4 runs] | [13] 100 % of control [middle of 4 runs] | [14] 100 % of control [middle of 4 runs]

CCCCCCCc1nc2c([nH]1)c(=O)n(C)c(=O)n2C
inactive: [15] 98 % of control | [12] 101 % of control | [13] 95 % of control | [14] 116 % of control

CC(=O)N1CC(=O)NC1=S
inactive: [16] 115 % of control | [17] 107 % of control | [18] 95 % of control

O=C(Nc1ccc([N+](=O)[O-])cn1)Nc1cc([N+](=O)[O-])ccc1F
inactive: [16] 93 % of control | [4] 94 % of control and 89 % of control | dose: 100.0 mg/kg/injection, schedule: Q04DX002 (ip), vehicle: Klucel (hydroxypropylcellulose) (HPC) 95 % of control and 102 % of control | [17] 100 % of control | [5] 94 % of control and 89 % of control | dose: 200.0 mg/kg/injection, schedule: Q04DX002 (ip), vehicle: Klucel (hydroxypropylcellulose) (HPC) 92 % of control and 102 % of control | [6] 87 % of control | [18] 94 % of control | [7] 100 % of control | dose: 400.0 mg/kg/injection, schedule: Q04DX002 (ip), vehicle: Klucel (hydroxypropylcellulose) (HPC) 94 % of control and 95 % of control | [8] 92 % of control

c1cnc2nc3[nH]c4ccccc4c3nc2c1
inactive: dose: 25.0 mg/kg/injection, schedule: Q01DX009 (ip), vehicle: saline with Tween-80 92 % of control | dose: 50.0 mg/kg/injection, schedule: Q01DX001 (oral), vehicle: saline with Tween-80 107 % of control | [9] 92 % of control and 89 % of control | dose: 50.0 mg/kg/injection, schedule: Q04DX003 (ip), vehicle: saline with Tween-80 96 % of control | dose: 100.0 mg/kg/injection, schedule: Q01DX001 (oral), vehicle: saline with Tween-80 115 % of control | [10] 94 % of control and 91 % of control | [1] 88 % of control | dose: 200.0 mg/kg/injection, schedule: Q01DX001 (oral), vehicle: saline with Tween-80 110 % of control | [11] 92 % of control and 94 % of control | [2] 90 % of control | dose: 400.0 mg/kg/injection, schedule: Q01DX001 (oral), vehicle: saline with Tween-80 108 % of control | dose: 400.0 mg/kg/injection, schedule: Q01DX009 (ip), vehicle: saline with Tween-80 92 % of control | [3] 86 % of control | dose: 800.0 mg/kg/injection, schedule: Q01DX001 (oral), vehicle: saline with Tween-80 105 % of control

CCCCNC(=O)N(C1CCCCC1)C1CCCCC1
inactive: [4] 103 % of control | [5] 92 % of control | [7] 92 % of control

Nc1cccc2scnc12
inactive: [1] 90 % of control | [2] 95 % of control | [3] 90 % of control

CS(=O)(=O)OCCCN(CCCOS(C)(=O)=O)c1ccc(C=Nc2ccc(-c3csc(COc4ccc(Br)cc4Br)n3)cc2)cc1
inactive: [1] 91 % of control | [2] 88 % of control | [3] 86 % of control

NCCCC(N)C(=O)O (stereo unspecified)
inactive: [12] 98 % of control | [13] 102 % of control | [14] 106 % of control

CC(C)(C)NCCC(=O)c1ccccc1
inactive: dose: 12.5 mg/kg/injection, schedule: Q04DX003 (ip), vehicle: saline 98 % of control | dose: 25.0 mg/kg/injection, schedule: Q04DX003 (ip), vehicle: saline 102 % of control | dose: 50.0 mg/kg/injection, schedule: Q04DX003 (ip), vehicle: saline 101 % of control

OC(c1ccccc1)(c1ccccc1)C(c1ccccc1)c1ccccc1
inactive: dose: 100.0 mg/kg/injection, schedule: Q04DX003 (ip), vehicle: acetone 93 % of control | dose: 200.0 mg/kg/injection, schedule: Q04DX003 (ip), vehicle: acetone 97 % of control | dose: 400.0 mg/kg/injection, schedule: Q04DX003 (ip), vehicle: acetone 87 % of control

Clc1cc(Cl)c(OCC#CI)cc1Cl
inactive: [15] 104 % of control | [12] 98 % of control | [13] 93 % of control | [14] 89 % of control
